Results published in patent publication US12479834B2, “Phenol compound or salt thereof” (TAIHO PHARMACEUTICAL CO., LTD., priority 2019, dated 2025).

Experiments:
G12C K-Ras4B (1-169) = target: T1, G12C K-Ras4B (1-169) (Homo sapiens, UniProt P01116, G12C); assay: Binding to KRAS G12C mutant, compound binding rate by LC-MS; details: final compound concentration 2 μM, 1 μM protein, 2 hours at 25° C.
T1 construct: G12C K-Ras4B (1-169) protein, which was a KRAS G12C mutant; His tag (N, cleaved yes); made in house; host or cells: E. coli BL21 (DE3)
Method in brief: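 Covalent labelling at 2 μM final compound on a mix of 1 μM each wild-type and G12C K-Ras4B (1-169) (E. coli-expressed, tag removed) in 1×TBS, 0.1 mM TCEP, 2 h at 25° C., quenched with formic acid. Intact-protein ESI Q-TOF LC-MS; binding rate from adduct vs unbound protein signal, graded A–E in 20% bands.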

KRAS G12C mutant = target: T2, KRAS G12C mutant (Homo sapiens, UniProt P01116, G12C); assay: Inhibition of SOS1-mediated nucleotide (GDP-GTP) exchange reaction of KRAS G12C mutant, BODIPY FL GDP fluorescence; format: biochemical; details: preincubated 25° C. 4 hours with 25 nM KRAS G12C bound with BODIPY FL GDP; SOS1 100 nM, GppNHp 1 μM, 30 minutes
T2 construct: 50 μM G12C K-Ras4B (1-169) protein and 1 mM BODIPY® FL GDP; His tag (N, cleaved yes); made in house; host or cells: E. coli BL21 (DE3)
Method in brief: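 KRAS G12C (1-169) loaded with BODIPY FL GDP (25 nM) was preincubated with compound (5% DMSO) for 4 h at 25 °C. Exchange then ran 30 min with SOS1 (564-1049, 100 nM) and 1 µM GppNHp. IC50 came from the 485/520 nm fluorescence change, normalized to DMSO and no-GppNHp controls.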

NCI-H358 cells = assay: Growth inhibition of KRAS-G12C mutant cell line NCI-H358 (CellTiter-Glo 2.0); format: cell-based; details: Homo sapiens, 72 h; NCI-H358, 3-day culture with compound
Protocol: KRAS-G12C mutant human lung cancer cell line NCI-H358 cells (ATCC, Cat #: CRL-5807) were suspended in RPMI1640 medium (manufactured by Fujifilm Wako Pure Chemical Corp.) containing 10% fetal bovine serum. The cell suspension was seeded at 500 cells/well into the wells of a 384-well flat-bottom microplate and cultured at 37° C. for 1 day in an incubator containing 5% CO2. The compound of the present invention was dissolved in DMSO and diluted with DMSO such that the concentration of the test compound was 500 times the final concentration. The solution of the test compound in DMSO was diluted with the medium used for suspending the cells, and the resultant was added to each well of the cell culture plate such that the final concentration of DMSO was 0.2%, followed by culture at 37° C. for another 3 days in an incubator containing 5% CO2.
Growth inhibition rate (%)=(C−T)/(C)×100 • T: the emission intensity in a well supplemented with the test compound. • C: the emission intensity in a well not supplemented with the test compound.

SMILES	binding rate for G12C K-Ras4B (1-169) (G12C K-Ras4B (1-169))	IC50 (KRAS G12C mutant) [nM]	IC50 (NCI-H358 cells) [nM]
C=CC(=O)N1CC(NC(=O)c2c(C)nc(CNc3cc(C(C)(C)C)c(C)cc3O)n2C(C)C)C1 [Example 78, N-(1-Acryloylazetidin-3-yl)-2-(((5-(tert-butyl)-2-hydroxy-4-methylphenyl)amino)methyl)-1-isopropyl-4-methyl-1H-imidazole-5-carboxamide]	A (80% or more)	50	993
C=CC(=O)N1CC(NC(=O)c2cnc(CNc3cc(C(C)(C)C)c(Cl)cc3O)n2CCOC)C1 [Example 37, N-(1-Acryloylazetidin-3-yl)-2-(((5-(tert-butyl)-4-chloro-2-hydroxyphenyl)amino)methyl)-1-(2-methoxyethyl)-1H-imidazole-5-carboxamide]	A (80% or more)	13	321
C=CC(=O)N1CC(NC(=O)c2c(C)nc(Cc3cc(C(C)(C)C)c(Cl)cc3O)n2C)C1 [Example 92, N-(1-Acryloylazetidin-3-yl)-2-(5-(tert-butyl)-4-chloro-2-hydroxybenzyl)-1,4-dimethyl-1H-imidazole-5-carboxamide]	B (60% or more and less than 80%)	55	1100
C=CC(=O)N1CC(N(C)C(=O)c2nc(CNc3cc(C(C)(C)C)c(Cl)cc3O)cs2)C1 [Example 29, N-(1-Acryloylazetidin-3-yl)-4-(((5-(tert-butyl)-4-chloro-2-hydroxyphenyl)amino)methyl)-N-methylthiazole-2-carboxamide]	A (80% or more)	12	1110
C=CC(=O)N1CC(NC(=O)c2sc(CNc3cc(C(C)(C)C)c(Cl)cc3O)nc2C)C1 [Example 20, N-(1-Acryloylazetidin-3-yl)-2-(((5-(tert-butyl)-4-chloro-2-hydroxyphenyl)amino)methyl)-4-methylthiazole-5-carboxamide]	A (80% or more)	13	658
C=CC(=O)N1CC(NC(=O)c2cnc(Cc3cc(C(C)(C)C)c(Cl)cc3O)n2C)C1 [Example 97, N-(1-Acryloylazetidin-3-yl)-2-(5-(tert-butyl)-4-chloro-2-hydroxybenzyl)-1-methyl-1H-imidazole-5-carboxamide]	A (80% or more)	22	683
C=CC(=O)N1CC(N(C)C(=O)c2ccc(CNc3cc(C(C)(C)C)c(Cl)cc3O)o2)C1 [Example 4, N-(1-Acryloylazetidin-3-yl)-5-(((5-(tert-butyl)-4-chloro-2-hydroxyphenyl)amino)methyl)-N-methylfuran-2-carboxamide]	A (80% or more)	11	1170

The remaining compounds from weak to strong by IC50 (KRAS G12C mutant), led by results:

binding rate for G12C K-Ras4B (1-169) (G12C K-Ras4B (1-169))	IC50 (KRAS G12C mutant) [nM]	IC50 (NCI-H358 cells) [nM]	SMILES
A (80% or more)	11	562	C=CC(=O)N1CC(NC(=O)c2cnc(CNc3cc(C(C)(C)C)c(Cl)cc3O)n2C)C1 [Example 18, N-(1-Acryloylazetidin-3-yl)-2-(((5-(tert-butyl)-4-chloro-2-hydroxyphenyl)amino)methyl)-1-methyl-1H-imidazole-5-carboxamide]
A (80% or more)	11	301	C=CC(=O)N1CC(NC(=O)c2c(C)nc(CNc3cc(C(C)(C)C)c(Cl)cc3O)n2C(C)C)C1 [Example 42, N-(1-Acryloylazetidin-3-yl)-2-(((5-(tert-butyl)-4-chloro-2-hydroxyphenyl)amino)methyl)-1-isopropyl-4-methyl-1H-imidazole-5-carboxamide]
A (80% or more)	9	511	C=CC(=O)N1CC(NC(=O)c2c(C)nc(CNc3cc(C(C)(C)C)c(Cl)cc3O)n2CCC)C1 [Example 44, N-(1-Acryloylazetidin-3-yl)-2-(((5-(tert-butyl)-4-chloro-2-hydroxyphenyl)amino)methyl)-4-methyl-1-propyl-1H-imidazole-5-carboxamide]
A (80% or more)	8	281	C=CC(=O)N1CC(NC(=O)c2c(C)nc(CNc3cc(C(C)(C)C)c(Cl)cc3O)n2CC)C1 [Example 41, N-(1-Acryloylazetidin-3-yl)-2-(((5-(tert-butyl)-4-chloro-2-hydroxyphenyl)amino)methyl)-1-ethyl-4-methyl-1H-imidazole-5-carboxamide]
A (80% or more)	5	112	C=CC(=O)N1CC(NC(=O)c2c(C)nc(CNc3cc(C(C)(C)C)c(Cl)cc3O)n2C)C1 [Example 39, N-(1-Acryloylazetidin-3-yl)-2-(((5-(tert-butyl)-4-chloro-2-hydroxyphenyl)amino)methyl)-1,4-dimethyl-1H-imidazole-5-carboxamide]
